Holding throughout (format): cell-based
Assay [1] addresses Beta-1 adrenergic receptor (Mus musculus, UniProt P34971). In words: Displacement of [3H]-CGP-12177 from murine beta1-adrenergic receptor expressed in HEK293T cells after 60 mins by radioligand competition binding assay. Background: In a radioligand displacement assay an active substance lowers the binding of a labelled ligand.
The target of assay [2] is T1, Beta-2 adrenergic receptor (Homo sapiens, UniProt P07550). As to the kind of experiment: Displacement of [3H]-CGP-12177 from human beta2-adrenergic receptor expressed in CHO cells after 60 mins by radioligand competition binding assay.
Assay [3] has as its target T2, Beta-1 adrenergic receptor (Homo sapiens, UniProt P08588). In words: Agonist activity at beta1-adrenergic receptor (unknown origin) expressed in HEK293T cells harboring Rluc2-117-GalphaS/GFP10-Ggamma/Gbeta1 assessed as activation of GalphaS incubated for 5 mins in presence of coelenterazine 400a by BRET assay. (BRET reads energy transfer from a luciferase to a nearby fluorophore.)

The target in assay [4] is T2, Beta-1 adrenergic receptor. In words: Agonist activity at beta1-adrenergic receptor (unknown origin) expressed in HEK293T cells harboring GFP/Rluc2-tagged beta-arrestin2 assessed as increase in beta-arrestin2 recruitment incubated for 5 mins in presence of coelenterazine 400a by BRET assay. A general note: Recruitment of arrestin is a read-out of receptor activation apart from second messengers.

Assay [5] has as its target T2, Beta-1 adrenergic receptor. As to the kind of experiment: Agonist activity at beta1-adrenergic receptor (unknown origin) expressed in HEK293T cells harboring GFP/Rluc2-tagged beta-arrestin2 assessed as increase in beta-arrestin2 recruitment incubated for 5 mins in presence of GRK2 and coelenterazine 400a by BRET assay.
Assay [6] deals with T2, Beta-1 adrenergic receptor. As to the kind of experiment: Agonist activity at beta1-adrenergic receptor (unknown origin) expressed in HEK293T cells harboring GFP/Rluc2-tagged beta-arrestin2 assessed as increase in beta-arrestin2 recruitment incubated for 5 mins in presence of GRK5 and coelenterazine 400a by BRET assay.
Assay [7] deals with T1, Beta-2 adrenergic receptor. As to the kind of experiment: Agonist activity at beta2-adrenergic receptor (unknown origin) expressed in HEK293T cells harboring Rluc2-117-GalphaS/GFP10-Ggamma/Gbeta1 assessed as activation of GalphaS incubated for 5 mins in presence of coelenterazine 400a by BRET assay.
For assay [8], the target named is T1, Beta-2 adrenergic receptor. As to the kind of experiment: Agonist activity at beta2-adrenergic receptor (unknown origin) expressed in HEK293T cells harboring GFP/Rluc2-tagged beta-arrestin2 assessed as increase in beta-arrestin2 recruitment incubated for 5 mins in presence of GSK2 and coelenterazine 400a by BRET assay.
Assay [9] has as its target T1, Beta-2 adrenergic receptor. In words: Agonist activity at beta2-adrenergic receptor (unknown origin) expressed in HEK293T cells harboring GFP/Rluc2-tagged beta-arrestin2 assessed as increase in beta-arrestin2 recruitment incubated for 5 mins in presence of GSK5 and coelenterazine 400a by BRET assay.
For assay [10], the target named is T1, Beta-2 adrenergic receptor. As to the kind of experiment: Agonist activity at beta2-adrenergic receptor (unknown origin) expressed in HEK293T cells harboring GFP/Rluc2-tagged beta-arrestin2 assessed as increase in beta-arrestin2 recruitment incubated for 5 mins in presence of coelenterazine 400a by BRET assay.

Beta-1 adrenergic receptor (Mus musculus, UniProt P34971), sequence (P34971 whole entry): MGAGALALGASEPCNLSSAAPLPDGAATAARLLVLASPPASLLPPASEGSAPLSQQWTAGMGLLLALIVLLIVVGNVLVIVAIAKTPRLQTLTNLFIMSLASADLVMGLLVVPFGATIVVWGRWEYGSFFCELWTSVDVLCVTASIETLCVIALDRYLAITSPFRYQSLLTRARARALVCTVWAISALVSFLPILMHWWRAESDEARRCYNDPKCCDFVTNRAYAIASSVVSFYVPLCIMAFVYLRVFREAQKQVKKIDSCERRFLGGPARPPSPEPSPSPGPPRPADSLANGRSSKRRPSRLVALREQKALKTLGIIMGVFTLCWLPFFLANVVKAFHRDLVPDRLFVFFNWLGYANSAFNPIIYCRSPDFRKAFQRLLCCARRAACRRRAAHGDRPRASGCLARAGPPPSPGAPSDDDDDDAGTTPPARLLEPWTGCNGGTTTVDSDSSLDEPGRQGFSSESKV
T2 sequence (P08588 whole entry): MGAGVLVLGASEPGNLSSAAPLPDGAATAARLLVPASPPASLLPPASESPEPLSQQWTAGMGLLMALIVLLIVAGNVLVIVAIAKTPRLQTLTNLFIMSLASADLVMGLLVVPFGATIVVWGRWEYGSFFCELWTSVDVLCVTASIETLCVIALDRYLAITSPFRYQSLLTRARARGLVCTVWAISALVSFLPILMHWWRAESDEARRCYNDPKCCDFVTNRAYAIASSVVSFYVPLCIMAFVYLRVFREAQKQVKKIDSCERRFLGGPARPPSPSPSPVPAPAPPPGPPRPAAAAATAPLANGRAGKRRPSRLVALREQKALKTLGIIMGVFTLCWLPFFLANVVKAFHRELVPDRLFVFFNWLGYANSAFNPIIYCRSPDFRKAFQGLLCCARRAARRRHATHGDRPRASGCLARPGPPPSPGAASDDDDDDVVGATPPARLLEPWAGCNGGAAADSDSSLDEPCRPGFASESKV
T1 sequence (P07550 whole entry): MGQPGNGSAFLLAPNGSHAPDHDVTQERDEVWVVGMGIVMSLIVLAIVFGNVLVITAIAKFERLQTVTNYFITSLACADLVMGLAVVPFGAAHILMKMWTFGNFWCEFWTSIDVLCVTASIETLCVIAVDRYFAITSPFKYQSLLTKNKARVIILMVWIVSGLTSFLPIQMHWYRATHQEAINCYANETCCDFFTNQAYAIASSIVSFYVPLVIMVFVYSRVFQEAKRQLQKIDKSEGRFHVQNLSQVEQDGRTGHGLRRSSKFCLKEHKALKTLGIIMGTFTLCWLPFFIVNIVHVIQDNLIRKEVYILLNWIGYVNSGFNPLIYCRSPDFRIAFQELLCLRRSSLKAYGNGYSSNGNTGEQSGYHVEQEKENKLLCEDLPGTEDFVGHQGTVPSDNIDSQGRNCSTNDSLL

The term Ki denotes a measure of affinity in units of concentration, obtained from inhibition or displacement. Take `CC(C)NC[C@H](O)COc1ccc(O)c(O)c1`: the Ki in assay [1] worked out at 14 nM; in assay [2], 12 nM. Further, the EC50 is 631 nM in [3] (read-out: pEC50 (converted)); 631 nM in assay [4]; 1000 nM in [5]; 316 nM in assay [6]; 794 nM in assay [7]; 316 nM in [8]. The EC50 in [9] is 251 nM.

For `COc1ccccc1OCCNC[C@H](O)c1ccc(O)c(O)c1`, the EC50 in assay [3] (read-out: pEC50 (converted)) was 39.8 nM; in [4], 79.4 nM; in assay [5] it was 63.1 nM; in [6], 51.3 nM; in [7], 63.1 nM; in [10], 269 nM. Further, the results for the EC50 in assay [8] and in [9] were 158 nM and 100 nM, respectively.

For `COc1cc(CCNC[C@H](O)c2ccc(O)c(O)c2)ccc1OCCCc1ccccc1`, the EC50 was 2000 nM in assay [3] (read-out: pEC50 (converted)); 794 nM in assay [4]; 794 nM in assay [5]; 501 nM in assay [6]; 100 nM in assay [7]; 724 nM in assay [10]. Also, the results for the EC50 in [8] and in [9] were 501 nM and 417 nM, respectively.

For the compound `COc1ccccc1OCCNC[C@H](O)COc1ccc(O)c(O)c1`, the Ki stood at 12 nM in assay [1] and 21 nM in [2]. In addition, the EC50 in assay [3] (read-out: EC50) was 300 to 800 nM; in assay [3] (read-out: pEC50 (converted)), 794 nM; in assay [4] it was 316 nM; in assay [5], 398 nM; in assay [6], 398 nM; in [7], 12600 nM. For the same compound, the EC50 in assay [8] was 794 nM; in assay [9] it was 631 nM.

`COc1ccccc1OCCNCCc1cccc2[nH]c3ccccc3c12`: the figures for the Ki in assay [1] and in assay [2] were 330 nM and 26 nM, respectively.

For the compound `COc1cc(CCNCCCOc2ccc(O)c(O)c2)ccc1OCCCc1ccccc1`, the Ki in assay [1] was found to be 1200 nM; in assay [2], 700 nM.

`CC(C)NC[C@@H](O)COc1ccc(O)c(O)c1`: the Ki stood at 860 nM in assay [1] and 420 nM in assay [2].

For `COc1ccccc1OCCNC[C@@H](O)c1cccc2[nH]c3ccccc3c12`, the Ki in [1] stood at 340 nM; in assay [2], 170 nM.

As to `COc1ccccc1OCCNC[C@H](O)c1cccc2[nH]c3ccccc3c12`, the Ki in [1] was 6.6 nM; in assay [2], 3.3 nM.

As for `COc1ccccc1OCCNC[C@@H](O)Cc1ccc(O)c(O)c1`, the values for the Ki in [1] and in [2] were 2400 nM and 740 nM, respectively.

For `COc1ccccc1OCCNCCCOc1ccc(O)c(O)c1`, the Ki was more than 10000 nM in assay [1] and 3800 nM in assay [2].

For the compound `COc1cc(CCNC[C@@H](O)COc2ccc(O)c(O)c2)ccc1OCCCc1ccccc1`, the Ki in assay [1] came out at 310 nM; in assay [2], 120 nM.

Consider `COc1ccccc1OCCNCCCOc1cccc2[nH]c3ccccc3c12`, for which the figures for the Ki in assay [1] and in assay [2] were 24 nM and 5.4 nM, respectively.

In the case of `COc1ccccc1OCCNC[C@@H](O)COc1ccc(O)c(O)c1`, the Ki was determined as 7400 nM in assay [1] and 7900 nM in assay [2].

For `COc1ccccc1OCCNC[C@H](O)Cc1ccc(O)c(O)c1`, the Ki in assay [1] is more than 10000 nM; in assay [2] it was 5200 nM.

Regarding `COc1ccccc1OCCNCCCc1ccc(O)c(O)c1`, the Ki in assay [1] is more than 10000 nM; in assay [2], 920 nM.

On to `CC(C)NCCCOc1ccc(O)c(O)c1`, for which the inhibitory constant (Ki) in assay [1] was more than 10000 nM; in assay [2] it was 6900 nM.

As for `COc1cc(CCNC[C@H](O)COc2ccc(O)c(O)c2)ccc1OCCCc1ccccc1`, the Ki in assay [1] worked out at 6.5 nM; in [2], 7.2 nM. Further, the EC50 is 2510 nM in [3] (read-out: pEC50 (converted)); 10000 nM in assay [4]; 2510 nM in [5]; 7940 nM in assay [6]; 12600 nM in [7]; 2000 nM in [9].

`OCc1cc(C(O)CNCCCCCCOCCCCc2ccccc2)ccc1O` (racemic) [SALMETEROL] gave a Ki in assay [1] of 550 nM.

The values above are taken from ChEMBL document CHEMBL4396875, “Hybridization of β-Adrenergic Agonists and Antagonists Confers G Protein Bias” (J Med Chem, 2019).
